According to patent publication US20240207202A1, “COMBINATION THERAPIES TARGETING MITOCHONDRIAL BIOGENESIS FOR CANCER THERAPY” (The Wistar Institute of Anatomy and Biology, priority 2015, published 2024):

How the values were obtained:
WM4265-2 cells = test: Tumor volume of WM4265-2 xenografts; type: in vivo, mice; settings: WM4265-2 xenografts (immunotherapy-progressed patient PDX line); Gamitrinib 10 mg/kg
Protocol: Mice were xenografted with WM4265-2 cells until tumors were established and then treated with Gamitrinib (10 mg/kg).

[1] = system: mitochondrial respiratory chain complex subunits; test: Expression of mitochondrial respiratory chain complex subunits in WM9 cells (qRT-PCR, RPPA, immunoblot); type: cell-based, human
Protocol: One μg total mRNA was reverse transcribed using a Maxima First Strand cDNA Synthesis Kit for qRT-PCR (Thermo Fisher). Fast SYBR® Green Master Mix (Life Technologies) was used with cDNA template and primers to evaluate the expression of target genes and GAPDH. Primers used were purchased from Integrated DNA Technologies. Amplifications were performed using an Applied Biosystems® 7500 Real-Time PCR System (Life Technologies). All experiments were performed in triplicate. Expression ratios of controls were normalized to 1. Please see Extended Experimental Procedures for the list of PCR primer sequences. The raw data of gene expression microarrays generated from Illumina Chips were normalized, background-corrected and summarized using the R package “lumi” (Du et al., 2008). […] To reduce false positives, the unexpressed probes were removed. The R package “limma” (Smyth, 2004, 2005) was employed for gene differential expression analysis, followed by multiple test correction by the Benjamini and Hochberg procedure (Benjamini and Hochberg, 1995). […] We also conducted GSEA as previously reported (Subramanian et al., 2005). For GSEA, we analyzed gene sets obtained from the Molecular Signatures Database (broadinstitute.org/gsea/msigdb/). The same differential expression analysis method was applied to RPPA data. Cells were washed with ice-cold PBS containing 100 μM Na3VO4 and scraped off culture dishes. After centrifugation, cell pellets were lysed in buffer containing 10 mM Tris-HCl, pH 7.8, 150 mM NaCl, 1 mM EDTA, 1% Nonidet P-40, 1 mM Na3VO4 and protease inhibitors (Roche complete protease inhibitor tablets). Lysates were cleared by micro-centrifugation and protein concentrations were determined with Protein Assay Dye Reagent Concentrate (Bio-Rad). For western blots, 25 μg of each lysate were run on 15-well 10% or 12% SDS-PAGE gels and transferred onto nitrocellulose membranes using a dye fast Trans-BlotR Turbo™ transfer system (Bio-Rad). Blots were blocked in SEA BLOCK Blocking Buffer (Thermo Scientific) diluted with 1×TBS at 1:1 ratio at room temperature for 1 h, incubated overnight with primary antibody at 4° C., stained with secondary antibodies conjugated to IRDye® Infrared Dyes (LI-COR Biosciences) and then visualized using an Odyssey flatbed scanner (LI-COR Biosciences).

WM9 cells = test: Cell viability by CellTiter Glo in WM9 cells; type: cell-based, human; settings: WM9, 72 h, Gamitrinib titrated with PLX4720 10 μM or PLX4720 10 μM and PD0325901 1 μM
Protocol: (§1) Cell viability was measured by the MTT assay or CellTiter-Glo luminescent cell viability assay (Promega). For the assessment of cell clonogenicity, cells were seeded into 12-well tissue culture plates at a density of 500 cells/well as biological triplicates in drug-free medium. Medium was refreshed every 3 or 4 days for 14 days. Colonies were then stained overnight with methanol containing 0.05% crystal violet. After extensive washing with distilled H2O, cells were air-dried and subjected to image acquisition using a Nikon D200 DLSR camera.

M-MITF = M-MITF gene expression by qRT-PCR in WM9 cells; type: cell-based, human; settings: WM9, 48 h, Gamitrinib 1 μM added to PLX4720 10 μM and PD0325901 1 μM
Protocol: One μg total mRNA was reverse transcribed using a Maxima First Strand cDNA Synthesis Kit for qRT-PCR (Thermo Fisher). Fast SYBR® Green Master Mix (Life Technologies) was used with cDNA template and primers to evaluate the expression of target genes and GAPDH. Primers used were purchased from Integrated DNA Technologies. Amplifications were performed using an Applied Biosystems® 7500 Real-Time PCR System (Life Technologies). All experiments were performed in triplicate. Expression ratios of controls were normalized to 1. Please see Extended Experimental Procedures for the list of PCR primer sequences.

melanoma cells = test: Cell clonogenicity (colony formation); type: cell-based, human; settings: long-term pretreatment, Gamitrinib 0.25 and 0.5 μM in combination with PLX4720
Protocol: as §1

reactive oxygen species = test: ROS by CellROX Deep Red; type: cell-based, human; settings: WM9, 72 h, Gamitrinib 1 μM with PLX4720 10 μM and PD0325901 1 μM
Protocol: Adherent melanoma cells were harvested with 0.05% Trypsin-EDTA and were washed once with 1×DPBS. Cells were labeled with CellTrace™ Violet according to the manufacturer's protocol and were allowed to adhere to tissue culture plates overnight following the drug treatment. At indicated time points following the drug treatment, floating and adherent cells were pooled, washed with Hank's Buffered Salt Solution (HBSS) and then stained with CellROX Deep Red at 2.5 μM or MitoTracer Red at 0.25 μM for 1 h in a 37° C. humidified incubator supplied with 5% CO2. Cells were then pelleted, washed with DPBS, and stained with PSVue® 643 at 5 μM diluted in TES buffer for 5 min in the dark. Cells were then immediately subjected to FACS analysis using a BD LSR II flow cytometer and at least 5,000 cells per sample were acquired.
Labeling cells with CellROX Deep Red—Following drug treatment, floating and adherent cells were pooled and stained in FACS tubes with CellROX Deep Red at 2.5 μM. Fluorescent dyes were diluted in 10% DMEM/F12 culture medium. Stained cell suspensions were kept in a 37° C. tissue culture incubator for 60 min with brief vortexing every 30 min. Cells were then washed with 1×PBS supplemented with 10% FBS.

[2] = system: mitochondrial DNA copy number; test: Mitochondrial DNA copy number; type: cell-based, human; settings: WM9, Gamitrinib 1 μM combined with PLX4720 and PD0325901 or LGX818 and MEK162
Protocol: Mitochondria DNA copy number was measured by the ratio of a mitochondrial gene, mtDNA-3, and a nuclear gene, 18S rRNA. The mtDNA-3/18S rRNA ratio was quantified by qRT-PCR on an Applied Biosystems 7500 Fast Real-Time PCR System. The reaction mixtures (25 μL final volume) contained 12.5 μL Fast SYBR Green Master Mix, 500 nM of each primer and 10 ng genomic DNA. The reaction conditions were 95° C. for 20 s, followed by 45 cycles of 95° C. for 3 s and 60° C. for 30 s. The relative mtDNA copy number was analyzed by the 2-ΔΔCt method.

Gamitrinib
tumor growth (WM4265-2 cells): significantly inhibited tumor growth
expression of mitochondrial respiratory chain complex subunits (SDHA, SDHB, UQCRC2, ATP5H, cyclophilin D) induced by MAPK inhibitors ([1]; WM9, 72 h, Gamitrinib 1 μM with PLX4720 10 μM or PLX4720 and PD0325901 1 μM, RPPA): significant reduction
5 mitochondrial respiratory chain complex subunits ([1]; WM9, immunoblotting, 72 h time course): down-regulated
cell viability (WM9 cells): significantly impaired cell viability
M-MITF expression up-regulated by MAPK pathway inhibitors (M-MITF): further down-regulated
colony formation (melanoma cells): substantially inhibited colony formation
ROS production compared to MAPK pathway inhibitors alone (reactive oxygen species): markedly increased the ROS production
mitochondrial DNA copy number [2]: decreases in mitochondrial DNA copy number
